# Counter-ions that a name gives are not always drawn.
# Biological target: T1, human recombinant GST-PAK1-KD protein (Homo sapiens, UniProt Q13153)
# T1 construct: residues #249-545 of human PAK1, UniProtKP/Swiss Q13153; His6 (N); made in house; host or cells: Sf9 insect cells, pAcGP67 baculovirus expression vector
# Experiment: GST-PAK1-KD (kinase domain) biochemical assay, microfluidic mobility shift
# Conditions: Table I, PAK1 Ki class; read-out: Ki
# T1 sequence (Q13153 249-545): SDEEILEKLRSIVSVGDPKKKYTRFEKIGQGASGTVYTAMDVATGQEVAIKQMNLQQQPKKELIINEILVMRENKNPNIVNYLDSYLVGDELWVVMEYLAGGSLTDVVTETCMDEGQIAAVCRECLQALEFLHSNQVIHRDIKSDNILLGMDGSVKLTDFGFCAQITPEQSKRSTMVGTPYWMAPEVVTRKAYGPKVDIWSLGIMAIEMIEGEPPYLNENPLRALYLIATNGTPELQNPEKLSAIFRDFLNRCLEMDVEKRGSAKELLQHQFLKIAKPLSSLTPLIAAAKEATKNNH
row,Compound,Ki [nM]
1,"Cc1c(CN(C)c2nccc(Nc3cc(C4CC4)[nH]n3)n2)ccc2[nH]cnc12 [I-95, N^4-(5-Cyclopropyl-1H-pyrazol-3-yl)-N^2-methyl-N^2-((4-methyl-1H-benzo[d]imidazol-5-yl)methyl)pyrimidine-2,4-diamine]",< 50
2,"Fc1cc(CNc2nccc(Nc3cc(C4CC4)[nH]n3)n2)cc2nc[nH]c12 [I-96, N^4-(5-cyclopropyl-1H-pyrazol-3-yl)-N^2-((7-fluoro-1H-benzo[d]imidazol-5-yl)methyl)pyrimidine-2,4-diamine]",50 to 250
3,"Fc1cnc(NCc2cccc3[nH]cnc23)nc1Nc1cc(C2CC2)n[nH]1 [I-97, N^2-((3H-benzo[d]imidazol-4-yl)methyl)-N^4-(3-cyclopropyl-1H-pyrazol-5-yl)-5-fluoropyrimidine-2,4-diamine]",< 50
4,"C[C@H](Nc1nccc(Nc2cc(C3CC3)[nH]n2)n1)c1cccc2[nH]ccc12 [I-98, N^4-(5-cyclopropyl-1H-pyrazol-3-yl)-N^2-[(1S)-1-(1H-indol-4-yl)ethyl]pyrimidine-2,4-diamine]",< 50
5,"C[C@H](Nc1ncc(F)c(Nc2cc(C3CC3)[nH]n2)n1)c1cccc2[nH]ccc12 [I-99, N^4-(5-cyclopropyl-1H-pyrazol-3-yl)-5-fluoro-N^2-[(1S)-1-(1H-indol-4-yl)ethyl]pyrimidine-2,4-diamine]",50 to 250
6,"C[C@@H](Nc1ncc(F)c(Nc2cc(C3CC3)[nH]n2)n1)c1cccc2[nH]ccc12 [I-100, N^4-(5-cyclopropyl-1H-pyrazol-3-yl)-5-fluoro-N^2-[(1R)-1-(1H-indol-4-yl)ethyl]pyrimidine-2,4-diamine]",> 1000
7,"CC[C@H](Nc1ncc(F)c(Nc2cc(C3CC3)[nH]n2)n1)c1ccc2[nH]cnc2c1 [I-101, N^2-[(1S)-1-(1H-benzimidazol-5-yl)propyl]-N^4-(5-cyclopropyl-1H-pyrazol-3-yl)-5-fluoro-pyrimidine-2,4-diamine]",50 to 250
8,"c1cc(Nc2cc(C3CC3)[nH]n2)nc(NCc2ccc3[nH]ncc3c2)n1 [I-102, N^4-(5-cyclopropyl-1H-pyrazol-3-yl)-N^2-(1H-indazol-5-ylmethyl)pyrimidine-2,4-diamine]",250 to 1000
9,"c1cc(Nc2cc(C3CC3)[nH]n2)nc(NCc2ccc3cn[nH]c3c2)n1 [I-103, N^4-(5-cyclopropyl-1H-pyrazol-3-yl)-N^2-(1H-indazol-6-ylmethyl)pyrimidine-2,4-diamine]",> 1000
10,"FC1(F)CC(c2cc(Nc3ccnc(NCc4cccc5[nH]ccc45)n3)n[nH]2)C1 [I-104, N^2-((1H-indol-4-yl)methyl)-N^4-(5-(3,3-difluorocyclobutyl)-1H-pyrazol-3-yl)pyrimidine-2,4-diamine]",50 to 250
11,"FC1(F)CC(c2cc(Nc3ccnc(NCc4ccc5[nH]cnc5c4Cl)n3)n[nH]2)C1 [I-105, N^2-((4-chloro-1H-benzo[d]imidazol-5-yl)methyl)-N^4-(5-(3,3-difluorocyclobutyl)-1H-pyrazol-3-yl)pyrimidine-2,4-diamine]",< 50
12,"Clc1c(CNc2nccc(Nc3cc(C4CCCC4)[nH]n3)n2)ccc2[nH]cnc12 [I-107, N^2-((4-chloro-1H-benzo[d]imidazol-5-yl)methyl)-N^4-(5-cyclopentyl-1H-pyrazol-3-yl)pyrimidine-2,4-diamine]",< 50
13,"Clc1c(CNc2nccc(Nc3cc(C4CCC4)[nH]n3)n2)ccc2[nH]cnc12 [I-108, N^2-((4-chloro-1H-benzo[d]imidazol-5-yl)methyl)-N^4-(5-cyclobutyl-1H-pyrazol-3-yl)pyrimidine-2,4-diamine]",< 50
14,"C[C@H](Nc1ncc(Cl)c(Nc2cc(C3CC3)[nH]n2)n1)c1ccc2[nH]ccc2c1 [I-110, (S)—N^2-(1-(1H-indol-5-yl)ethyl)-5-chloro-N^4-(5-cyclopropyl-1H-pyrazol-3-yl)pyrimidine-2,4-diamine]",250 to 1000
15,"C[C@H](Nc1nccc(Nc2cc(C3CC(F)(F)C3)[nH]n2)n1)c1ccc2[nH]ccc2c1 [I-111, (S)—N^2-(1-(1H-indol-5-yl)ethyl)-N^4-(5-(3,3-difluorocyclobutyl)-1H-pyrazol-3-yl)pyrimidine-2,4-diamine]",< 50
16,"Cc1cc(Nc2ccnc(N[C@@H](C)c3ccc4[nH]ccc4c3)n2)n[nH]1 [I-112, (S)—N^2-(1-(1H-indol-5-yl)ethyl)-N^4-(5-methyl-1H-pyrazol-3-yl)pyrimidine-2,4-diamine]",250 to 1000
17,"C[C@H](Nc1nccc(Nc2cc(C3CCCC3)[nH]n2)n1)c1ccc2[nH]ccc2c1 [I-113, (S)—N^2-(1-(1H-indol-5-yl)ethyl)-N^4-(5-cyclopentyl-1H-pyrazol-3-yl)pyrimidine-2,4-diamine]",< 50
18,"C[C@H](Nc1nccc(Nc2cc(C3CCOC3)[nH]n2)n1)c1ccc2[nH]ccc2c1 (stereo partly drawn) [I-115, N^2—((S)-1-(1H-indol-5-yl)ethyl)-N^4-(5-(tetrahydrofuran-3-yl)-1H-pyrazol-3-yl)pyrimidine-2,4-diamine]",< 50
19,"C[C@H](Nc1nccc(Nc2cc(C3CCCO3)[nH]n2)n1)c1ccc2[nH]ccc2c1 (stereo partly drawn) [I-116, N^2—((S)-1-(1H-indol-5-yl)ethyl)-N^4-(5-(tetrahydrofuran-2-yl)-1H-pyrazol-3-yl)pyrimidine-2,4-diamine]",250 to 1000
20,"Fc1cnc(NCc2ccc3[nH]cnc3c2Cl)nc1Nc1cc(C2CC2)[nH]n1 [I-117, N^2-((4-chloro-1H-benzo[d]imidazol-5-yl)methyl)-N^4-(5-cyclopropyl-1H-pyrazol-3-yl)-5-fluoropyrimidine-2,4-diamine]",< 50
21,"c1cc(CNc2nccc(Nc3cc(C4CCCO4)[nH]n3)n2)c2cc[nH]c2c1 (stereo not shown) [I-119, N^2-((1H-indol-4-yl)methyl)-N^4-(5-(tetrahydrofuran-2-yl)-1H-pyrazol-3-yl)pyrimidine-2,4-diamine]",250 to 1000
22,Fc1cnc(NCc2cccc3[nH]ccc23)nc1Nc1cc(C2CC2)[nH]n1 [I-120],50 to 250
23,"Cc1cc(Nc2ccnc(N[C@@H](C)c3ccc4[nH]cnc4c3)n2)n[nH]1 [I-121, (S)—N^2-(1-(1H-benzo[d]imidazol-5-yl)ethyl)-N^4-(5-methyl-1H-pyrazol-3-yl)pyrimidine-2,4-diamine]",250 to 1000
24,"Cc1ccc2[nH]ccc2c1CNc1nccc(Nc2cc(C3CC3)[nH]n2)n1 [I-122, N^4-(5-Cyclopropyl-1H-pyrazol-3-yl)-N^2-((5-methyl-1H-indol-4-yl)methyl)pyrimidine-2,4-diamine]",50 to 250

# Same assay, conditions: Table II, PAK1 Ki class; read-out: Ki
row,Compound,Ki [nM]
1,"COc1c(CNc2nccc(Nc3cc(C4CC4)[nH]n3)n2)ccc2[nH]cnc12 [II-1, N^4-(5-Cyclopropyl-1H-pyrazol-3-yl)-N^2-[(4-methoxy-1H-benzimidazol-5-yl)methyl]-pyrimidine-2,4-diamine]",< 50
2,"CN(Cc1ccc2[nH]cnc2c1Cl)c1nccc(Nc2cc(OCc3ccccc3)[nH]n2)n1 [II-3, N^4-(5-Benzyloxy-1H-pyrazol-3-yl)-N^2-[(4-chloro-1H-benzimidazol-5-yl)methyl]-N^2-methyl-pyrimidine-2,4-diamine]",< 50
3,"Clc1c(CNc2nccc(Nc3cc(C4COC4)[nH]n3)n2)ccc2[nH]cnc12 [II-4, N^2-[(4-chloro-1H-benzimidazol-5-yl)methyl]-N^4-[5-(oxetan-3-yl)-1H-pyrazol-3-yl]pyrimidine-2,4-diamine, formic acid salt]",< 50
4,"CN(Cc1ccc2[nH]cnc2c1Cl)c1ncc(F)c(Nc2cc(C3COC3)[nH]n2)n1 [II-5, N^2-[(4-Chloro-1H-benzimidazol-5-yl)methyl]-5-fluoro-N^2-methyl-N^4-[5-(oxetan-3-yl)-1H-pyrazol-3-yl]pyrimidine-2,4-diamine]",< 50
5,"Clc1c(CNc2nccc(Nc3cc(OCC4CC4)[nH]n3)n2)ccc2[nH]cnc12 [II-6, N^2-(4-Chloro-1H-benzoimidazol-5-ylmethyl)-N4-(5-cyclopropylmethoxy-1H-pyrazol-3-yl)-pyrimidine-2,4-diamine]",< 50
6,"CCc1c(CNc2nccc(Nc3cc(C4CC4)[nH]n3)n2)ccc2[nH]cnc12 [II-7, N^4-(5-Cyclopropyl-1H-pyrazol-3-yl)-N^2-[(4-ethyl-1H-benzimidazol-5-yl)methyl]pyrimidine-2,4-diamine]",< 50
7,"Cc1c(CNc2ncc(F)c(Nc3cc(C4CC4)[nH]n3)n2)ccc2[nH]cnc12 [II-8, N^4-(5-Cyclopropyl-1H-pyrazol-3-yl)-5-fluoro-N^2-[(4-methyl-1H-benzimidazol-5-yl)methyl]pyrimidine-2,4-diamine]",50 to 250
8,"c1cc(CNc2nccc(Nc3cc(C4COC4)[nH]n3)n2)c2cc[nH]c2c1 [II-9, N^2-(1H-indol-4-ylmethyl)-N^4-[5-(oxetan-3-yl)-1H-pyrazol-3-yl]pyrimidine-2,4-diamine]",50 to 250
9,"c1cncc(CN(Cc2cccc3[nH]ccc23)c2nccc(Nc3cc(C4CC4)[nH]n3)n2)c1 [II-10, N^4-(5-Cyclopropyl-1H-pyrazol-3-yl)-N^2-(1H-indol-4-ylmethyl)-N^2-(3-pyridylmethyl)pyrimidine-2,4-diamine]",50 to 250
10,"Cc1n[nH]c2cc(Cl)cc(CNc3nccc(Nc4cc(C5CC5)[nH]n4)n3)c12 [II-12, N^2-((6-Chloro-3-methyl-1H-indazol-4-yl)methyl)-N^4-(5-cyclopropyl-1H-pyrazol-3-yl)pyrimidine-2,4-diamine]",< 50
11,"Cc1cc(CNc2nccc(Nc3cc(C4CC4)[nH]n3)n2)c2cn[nH]c2c1 [II-13, N^4-(5-Cyclopropyl-1H-pyrazol-3-yl)-N^2-((6-methyl-1H-indazol-4-yl)methyl)pyrimidine-2,4-diamine]",< 50
12,"CN(Cc1cc(Cl)cc2[nH]cnc12)c1nccc(Nc2cc(C3CC3)[nH]n2)n1 [II-14, N^2-((6-Chloro-1H-benzo[d]imidazol-4-yl)methyl)-N^4-(5-cyclopropyl-1H-pyrazol-3-yl)-N^2-methylpyrimidine-2,4-diamine]",< 50
13,"Cc1cc2c(CNc3nccc(Nc4cc(C5CC5)[nH]n4)n3)cccc2[nH]1 [II-15, N^4-(5-Cyclopropyl-1H-pyrazol-3-yl)-N^2-((2-methyl-1H-indol-4-yl)methyl)pyrimidine-2,4-diamine]",< 50

# Reference: patent publication US8637537B2, “Serine/threonine kinase inhibitors” (Genentech, Inc., priority 2011, dated 2014)
